Structures are written as SMILES. Where a name gives a salt, the structure may show the parent alone.

The values that follow come from patent US5328909A, “Cyclopropenone derivatives” (Mitsubishi Kasei Corporation, priority 1991, dated 1994).

The first assay has as its target T1, m-calpain (Rattus norvegicus, UniProt Q07009).
T1 construct: m-calpain was purified from rat brain; from tissue; host or cells: rat brain
T1 sequence (Q07009 20-700 limits assumed): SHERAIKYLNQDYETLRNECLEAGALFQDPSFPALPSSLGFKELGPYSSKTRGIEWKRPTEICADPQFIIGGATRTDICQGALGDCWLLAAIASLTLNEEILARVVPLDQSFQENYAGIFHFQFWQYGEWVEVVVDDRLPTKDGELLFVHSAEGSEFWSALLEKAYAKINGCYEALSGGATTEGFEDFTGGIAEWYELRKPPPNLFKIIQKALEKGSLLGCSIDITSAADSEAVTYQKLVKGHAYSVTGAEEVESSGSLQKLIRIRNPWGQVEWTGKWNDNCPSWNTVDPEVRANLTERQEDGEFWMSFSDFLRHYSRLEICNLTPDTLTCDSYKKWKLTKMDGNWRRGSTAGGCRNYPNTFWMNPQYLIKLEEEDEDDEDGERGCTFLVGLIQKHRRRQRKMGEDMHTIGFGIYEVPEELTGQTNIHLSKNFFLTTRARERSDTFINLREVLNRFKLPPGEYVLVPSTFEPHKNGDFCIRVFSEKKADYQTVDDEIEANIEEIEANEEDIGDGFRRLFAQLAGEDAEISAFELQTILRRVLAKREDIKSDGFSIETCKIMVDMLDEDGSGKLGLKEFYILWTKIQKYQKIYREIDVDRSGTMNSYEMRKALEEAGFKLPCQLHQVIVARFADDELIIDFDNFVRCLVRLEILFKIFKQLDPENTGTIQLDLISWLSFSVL
T1 sequence (Q64537 1-270 partner): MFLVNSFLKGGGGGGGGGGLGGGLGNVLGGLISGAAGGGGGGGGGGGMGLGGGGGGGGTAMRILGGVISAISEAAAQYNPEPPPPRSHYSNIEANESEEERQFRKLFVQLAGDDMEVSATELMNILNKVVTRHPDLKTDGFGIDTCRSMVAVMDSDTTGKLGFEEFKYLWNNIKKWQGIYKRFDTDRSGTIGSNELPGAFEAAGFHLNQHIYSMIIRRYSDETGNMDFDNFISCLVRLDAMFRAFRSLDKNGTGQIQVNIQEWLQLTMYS
The assay can be described thus: Thiol protease inhibitory activity against m-calpain purified from rat brain. Type of assay: biochemical.
Conditions: not given
As to the method:
Inhibitory activity against papain (P-3125, Sigma) and cathepsin B (C-6286, Sigma) was assayed according to the method described in a literature [Biochemical Journal, 201, 189 (1982)]. Capthesin L was purified from rat kidney according to the method in a literature [Journal of Biochemistry, 100, 35 (1986)], and the inhibitory activity against it was assayed in the same manner as described in the above literature for cathepsin B. Further, m-calpain was purified from rat brain according to a known method [Journal of Biological Chemistry, 254, p.3210 (1984)] and the inhibitory activity against it was assayed by a method described in a literature [Journal of Biological Chemistry, 259, 12489 (1984)]. The results are showing in Tables 3 and 4. It is evident from Tables 3 and 4 that the compounds in the present invention have a potent inhibitory activity against thiol proteases such as papain, cathepsin B, cathepsin L, m-calpain or the like.
Usually IC50 stands for the concentration needed to halve the response being measured. Regarding `CC(C)C[C@H](NC(=O)Oc1ccccc1)C(=O)N[C@@H](C(C)C)[C@@H](O)c1c(-c2ccccc2)c1=O` [33 (No. 102), 2-[(1S, 2S)-1-hydroxy-3-methyl-2-((S)-4-methyl-2-phenoxycarbonylamino)valerylamino]-3-phenylcyclopropenone], the IC50 turned out to be 0.84 µM.

Staying with this assay, now noted: Table 4; rat brain enzyme; read-out: Inhibitory activity against m-calpain IC50.
As for `CC(C)C[C@H](NC(=O)OCc1ccccc1)C(=O)N[C@@H](Cc1ccccc1)C(O)c1cc1=O` (stereo partly drawn) [9 (No. 26), 2-[(2S)-2-((S)-2-benzyloxycarbonylamino-4-methylvalerylamino)-1-hydroxy-3-phenylpropyl]cyclopropenone], the IC50 came out at 5 µM.
Same read-out and setting: for `CC(C)COC(=O)N[C@@H](CC(C)C)C(=O)N[C@@H](C(C)C)[C@@H](O)c1c(-c2ccccc2)c1=O` [20 (No. 72), 2-[(1S, 2S)-1-hydroxy-2-((S)-2-isobutoxycarbonylamino-4-methylvalerylamino)-3-methylbutyl]-3-phenylcyclopropenone] the value was 1.3 µM.
Same read-out and setting: as for `CC(C)COC(=O)N[C@@H](CC(C)C)C(=O)N[C@@H](C(C)C)[C@H](O)c1c(-c2ccccc2)c1=O` [21 (No. 72), 2-[(1R, 2S)-1-hydroxy-2-((S)-2-isobutoxycarbonylamino-4-methylvalerylamino)-3-methylbutyl]-3-phenylcyclopropenone], the figure is 3 µM; as for `CC(C)C[C@H](NC(=O)OCc1ccccn1)C(=O)N[C@@H](C(C)C)[C@@H](O)c1c(-c2ccccc2)c1=O` [29 (No. 97), 2-[(1s, 2S)-1-hydroxy-3-methyl-2-{(S)-4-methyl-2-(2-pyridylmethoxycarbonylamino)valerylamino}butyl]-3-phenylcyclopropenone hydrochloride], 1.7 µM.
On the same count and under the same terms, as for `CC(C)C[C@H](NC(=O)OCc1ccncc1)C(=O)N[C@@H](C(C)C)[C@@H](O)c1c(-c2ccccc2)c1=O` [31 (No. 99), 2-[(1S, 2S)-1-hydroxy-3-methyl-2-{(S)-4-methyl-2-(4-pyridylmethoxycarbonylamino)valerylamino}butyl]-3-phenylcyclopropenone hydrochloride], the figure is 1.3 µM; as for `CC(C)C[C@H](NC(=O)OCc1ccncc1)C(=O)N[C@@H](C(C)C)[C@H](O)c1c(-c2ccccc2)c1=O` [32 (No. 99), 2-[(1R, 2S)-1-hydroxy-3-methyl-2-{(S)-4-methyl-2-(4-pyridylmethoxycarbonylamino)valerylamino}butyl]-3-phenylcyclopropenone hydrochloride], 1.2 µM.
Regarding `CC(C)CCC(=O)N[C@@H](CC(C)C)C(=O)N[C@@H](C(C)C)[C@@H](O)c1c(-c2ccccc2)c1=O` [37 (No. 114), 2-[(1S, 2S)-1-hydroxy-2-((S)-2-isohexanoylamino-4-methylvalerylamino)-3-methylbutyl]-3-phenylcyclopropenone], the IC50 came out at 2.1 µM.
Regarding `CCCCCCCCCCCC(=O)N[C@@H](CC(C)C)C(=O)N[C@@H](C(C)C)[C@@H](O)c1c(-c2ccccc2)c1=O` [38 (No. 120), 2-[(1S, 2S)-1-hydroxy-2-((S)-2-lauroylamino-4-methylvalerylamino)^- 3-methylbutyl]-3-phenylcyclopropenone], the concentration for half-maximal inhibition (IC50) is 4 µM.
The same measure, in the same setting: as for `CC(C)C[C@H](NC(=O)CCC1CCCCC1)C(=O)N[C@@H](C(C)C)[C@@H](O)c1c(-c2ccccc2)c1=O` [39 (No. 124), 2-[(1S, 2S)-2-{(S)-2-(3-cyclohexylpropionylamino)-4-methylvalerylamino} -1-hydroxy-3-methylbutyl]-3-phenylcyclopropenone], the figure is 1.9 µM; as for `CC(C)C[C@H](NC(=O)C1CCCCC1)C(=O)N[C@@H](C(C)C)[C@@H](O)c1c(-c2ccccc2)c1=O` [40 (No. 129), 2-[(1S, 2S)-2-((S)-2-cyclohexylcarbonylamino-4-methylvalerylamino)-1-hydroxy-3-methylbutyl]-3-phenylcyclopropenone], 2.6 µM; as for `CC(C)C[C@H](NC(=O)Cc1ccccc1)C(=O)N[C@@H](C(C)C)[C@@H](O)c1c(-c2ccccc2)c1=O` [41 (No. 132), 2-[(1S, 2S)-1-hydroxy-3-methyl-2-((S)-4-methyl-2-phenylacetylaminovalerylamino)butyl]-3-phenylcyclopropenone], 1.4 µM.
Still for that read-out and setting: for `CC(C)C[C@H](NC(=O)CCc1ccccc1)C(=O)N[C@@H](C(C)C)[C@@H](O)c1c(-c2ccccc2)c1=O` [42 (No. 133), 2-[(1S, 2S)-1-hydroxy-3-methyl-2-{(S)-4-methyl-2-(3-phenylpropionylamino)valerylamino}butyl]-3-phenylcyclopropenone] the value was 1.5 µM.
Same read-out and setting: for `CC(C)C[C@H](NC(=O)CCCc1ccccc1)C(=O)N[C@@H](C(C)C)[C@@H](O)c1c(-c2ccccc2)c1=O` [43 (No. 134), 2-[(1S, 2S)-1-hydroxy-3-methyl-2-{(S)-4-methyl-2-(4-phenylbutyrylamino)valerylamino}butyl]-3-phenylcyclopropenone] the value was 1.7 µM; for `CC(=O)CCC(=O)N[C@@H](CC(C)C)C(=O)N[C@@H](C(C)C)[C@@H](O)c1c(-c2ccccc2)c1=O` [44 (No. 137), 2-[(1S, 2S)-1-hydroxy-3-methyl-2-(S)-4-methyl-2-(4-oxovalerylamino)valerylamino]-3-phenylcyclopropenone], 3 µM.
With `CC(C)C[C@H](NC(=O)CCC(=O)c1ccccc1)C(=O)N[C@@H](C(C)C)[C@@H](O)c1c(-c2ccccc2)c1=O` [45 (No. 140), 2-[(1S, 2S)-2-{(S)-2-(3-benzoylpropionylamino)-4-methylvalerylamino}-1-hydroxy-3-methylbutyl]-3-phenylcyclopropenone], the IC50 turned out to be 1 µM.
Turning to `CC(C)C[C@H](NC(=O)COc1ccccc1)C(=O)N[C@@H](C(C)C)[C@@H](O)c1c(-c2ccccc2)c1=O` [48 (No. 148), 2-[(1S, 2S)-1-hydroxy-3-methyl-2-((S)-4-methyl-2-phenoxyacetylaminovalerylamino)butyl]-3-phenylcyclopropenone], the IC50 was 0.63 µM.
Still for that read-out and setting: for `CC(C)C[C@H](NC(=O)COc1ccccc1Cl)C(=O)N[C@@H](C(C)C)[C@@H](O)c1c(-c2ccccc2)c1=O` [50 (No. 152), 2-[(1S, 2S)-2-{(S)-2-(2-chlorophenoxyacetylamino)-4-methylvalerylamino}-1-hydroxy-3-methylbutyl]-3-phenylcyclopropenone] the value was 1.2 µM; for `CC(C)C[C@H](NC(=O)COc1ccc(Cl)cc1)C(=O)N[C@@H](C(C)C)[C@@H](O)c1c(-c2ccccc2)c1=O` [51 (No. 154), 2-[(1S, 2S)-2-{(S)-2-(4-chlorophenoxyacetylamino)-4-methylvalerylamino}-1-hydroxy-3-methylbutyl]-3-phenylcyclopropenone], 0.75 µM; for `CC(C)C[C@H](NC(=O)COc1cccc(Cl)c1Cl)C(=O)N[C@@H](C(C)C)[C@@H](O)c1c(-c2ccccc2)c1=O` [52 (No. 155), 2-[(1S, 2S)-2-{(S)-2-(2,3-dichlorophenoxyacetylamino)-4-methylvalerylamino}-1-hydroxy-3-methylbutyl]-3-phenylcyclopropenone], 0.74 µM.
On the same count and under the same terms, as for `COc1ccccc1OCC(=O)N[C@@H](CC(C)C)C(=O)N[C@@H](C(C)C)[C@@H](O)c1c(-c2ccccc2)c1=O` [53 (No. 161)], the figure is 2.3 µM.
On the same count and under the same terms, as for `CC(C)C[C@H](NC(=O)COCc1ccccc1)C(=O)N[C@@H](C(C)C)[C@@H](O)c1c(-c2ccccc2)c1=O` [54 (No. 166), 2-[(1S, 2S)-2-((S)-2-benzyloxyacetylamino-4-methylvalerylamino)-1-hydroxy-3-methylbutyl]-3-phenylcyclopropenone], the figure is 1.1 µM; as for `CC(C)C[C@H](NC(=O)CCOc1ccccc1)C(=O)N[C@@H](C(C)C)[C@@H](O)c1c(-c2ccccc2)c1=O` [55 (No. 167), 2-[(1S, 2S)-1-hydroxy-3-methyl-2-{(S)-4-methyl-2-(3-phenoxypropionylamino)valerylamino}butyl]-3-phenylcyclopropenone], 0.8 µM; as for `CC(C)C[C@H](NC(=O)CSc1ccccc1)C(=O)N[C@@H](C(C)C)[C@@H](O)c1c(-c2ccccc2)c1=O` [56 (No. 168), 2-[(1S, 2S)-1-hydroxy-3-methyl-2-((S)-4-methyl-2-phenylthioacetylaminovalerylamino}butyl]-3-phenylcyclopropenone], 2.2 µM.
